Source: patent publication US9212151B2, “Heterocyclic compounds useful for kinase inhibition” (Amitech Therapeutic Solutions, Inc., priority 2010, dated 2015)

Assay: MTT cell viability assay, compounds at 5, 1 and 0.2 μM, 48 hours
Format: cell-based
Conditions: human, A549 tumor cells, 0.2 μM
Procedure: MTT assay is used to determine cell proliferation, percent of viable cells, and cytotoxicity. MTT (3-[4,5-dimethylthiazol-2-yl]2,5-diphenyltetrazolium bromide) is a yellow dye, which can be absorbed by the living cells and be reduced to purplish blue formazan crystals by succinate tetrazolium reductase in mitochondria. Formazan formation can therefore be used to assess and determine the survival rate of cells.
Tumor cells (A549) were plated at 2500 cells/well of a 96-well plate in complete growth medium (DMEM+10% FBS, antibiotic/antimycotic, fungizone, L-glutamine, sodium pyruvate, and non-essential amino acids). The cells were allowed to grow overnight. After cell proliferation, the cells were washed and re-suspended in fresh culture medium and placed in 96 well plates.
To each of the 96 well plates containing A549 and a control, 5, 1, and 0.2 μM of the exemplary compounds 1-200 were add. The 96 well plates were incubated for 48 hours. Cell viability was measured by adding MTT (Sigma) at 5 mg/ml for 4 h to the cells and then removing the medium and resuspending each well in 50 μl DMSO to solubilize the crystals. The 96-well plates were read on a plate-scanning spectrophotometer (BioTek) at an absorbance of […]. The survival rate of cells was calculated based on the measurement of absorption at the 570 nm wavelength by enzyme immunoassay analyzer.

Compound	viability at 48 h, 0.2 µM
Nc1nccc(Oc2ccc(-c3nnc(Nc4cccc(C(F)(F)F)c4)[nH]3)cc2)n1 [Compound 1]	> 70%
Nc1cc(Oc2ccc(-c3nnc(Nc4cccc(C(F)(F)F)c4)[nH]3)cc2)ncn1 [Compound 2]	> 70%
FC(F)(F)c1cccc(Nc2nnc(-c3ccc(Oc4ccncc4)cc3)[nH]2)c1 [Compound 3]	> 70%
Nc1cc(Oc2ccc(-c3nnc(Nc4cccc(C(F)(F)F)c4)[nH]3)cc2)ccn1 [Compound 4]	> 70%
FC(F)(F)c1cccc(Nc2nnc(-c3ccc(Oc4cc(Cl)ccn4)cc3)[nH]2)c1 [Compound 5]	> 70%
FC(F)(F)c1cccc(Nc2nnc(-c3ccc(Oc4ccnc(Cl)c4)cc3)[nH]2)c1 [Compound 6]	> 70%
NS(=O)(=O)c1cnccc1Oc1ccc(-c2nnc(Nc3cccc(C(F)(F)F)c3)[nH]2)cc1 [Compound 7]	> 70%
FC(F)(F)c1cccc(Nc2nnc(-c3ccc(Oc4ccncc4C(F)(F)F)cc3)[nH]2)c1 [Compound 8]	> 70%
CSc1nc(Oc2ccc(-c3nnc(Nc4cccc(C(F)(F)F)c4)[nH]3)cc2)c2cc[nH]c2n1 [Compound 9]	> 70%
FC(F)(F)c1cccc(Nc2nnc(-c3ccc(Oc4ncnc5[nH]ccc45)cc3)[nH]2)c1 [Compound 10]	> 70%
COc1ccc2c(Oc3ccc(-c4nnc(Nc5cccc(C(F)(F)F)c5)[nH]4)cc3)ccnc2c1 [Compound 11]	> 70%
FC(F)(F)c1cccc(Nc2nnc(-c3ccc(Oc4ccnc5ccccc45)cc3)[nH]2)c1 [Compound 12]	> 70%
Nc1cc(Oc2cccc(-c3nnc(Nc4cccc(C(F)(F)F)c4)[nH]3)c2)nc(N)n1 [Compound 13]	> 70%
CSc1nc(N)cc(Oc2cccc(-c3nnc(Nc4cccc(C(F)(F)F)c4)[nH]3)c2)n1 [Compound 14]	50 to 70%
Nc1nccc(Oc2cccc(-c3nnc(Nc4cccc(C(F)(F)F)c4)[nH]3)c2)n1 [Compound 15]	> 70%
Nc1cc(Oc2cccc(-c3nnc(Nc4cccc(C(F)(F)F)c4)[nH]3)c2)ncn1 [Compound 16]	> 70%
FC(F)(F)c1cccc(Nc2nnc(-c3cccc(Oc4ccncc4)c3)[nH]2)c1 [Compound 17]	> 70%
Nc1cc(Oc2cccc(-c3nnc(Nc4cccc(C(F)(F)F)c4)[nH]3)c2)ccn1 [Compound 18]	50 to 70%
NS(=O)(=O)c1cnccc1Oc1cccc(-c2nnc(Nc3cccc(C(F)(F)F)c3)[nH]2)c1 [Compound 19]	> 70%
FC(F)(F)c1cccc(Nc2nnc(-c3cccc(Oc4ccncc4C(F)(F)F)c3)[nH]2)c1 [Compound 20]	> 70%
FC(F)(F)c1cccc(Nc2nnc(-c3cccc(Oc4ncnc5[nH]ccc45)c3)[nH]2)c1 [Compound 21]	> 70%
COc1ccc2c(Oc3cccc(-c4nnc(Nc5cccc(C(F)(F)F)c5)[nH]4)c3)ccnc2c1 [Compound 22]	> 70%
FC(F)(F)c1cccc(Nc2nnc(-c3cccc(Oc4ccnc5ccccc45)c3)[nH]2)c1 [Compound 23]	> 70%

Same assay, conditions: human, A549 tumor cells, 1 μM

Compound	viability at 48 h, 1 µM
Nc1nccc(Oc2ccc(-c3nnc(Nc4cccc(C(F)(F)F)c4)[nH]3)cc2)n1 [Compound 1]	50 to 70%
Nc1cc(Oc2ccc(-c3nnc(Nc4cccc(C(F)(F)F)c4)[nH]3)cc2)ncn1 [Compound 2]	> 70%
FC(F)(F)c1cccc(Nc2nnc(-c3ccc(Oc4ccncc4)cc3)[nH]2)c1 [Compound 3]	50 to 70%
Nc1cc(Oc2ccc(-c3nnc(Nc4cccc(C(F)(F)F)c4)[nH]3)cc2)ccn1 [Compound 4]	> 70%
FC(F)(F)c1cccc(Nc2nnc(-c3ccc(Oc4cc(Cl)ccn4)cc3)[nH]2)c1 [Compound 5]	> 70%
FC(F)(F)c1cccc(Nc2nnc(-c3ccc(Oc4ccnc(Cl)c4)cc3)[nH]2)c1 [Compound 6]	50 to 70%
NS(=O)(=O)c1cnccc1Oc1ccc(-c2nnc(Nc3cccc(C(F)(F)F)c3)[nH]2)cc1 [Compound 7]	> 70%
FC(F)(F)c1cccc(Nc2nnc(-c3ccc(Oc4ccncc4C(F)(F)F)cc3)[nH]2)c1 [Compound 8]	> 70%
CSc1nc(Oc2ccc(-c3nnc(Nc4cccc(C(F)(F)F)c4)[nH]3)cc2)c2cc[nH]c2n1 [Compound 9]	> 70%
FC(F)(F)c1cccc(Nc2nnc(-c3ccc(Oc4ncnc5[nH]ccc45)cc3)[nH]2)c1 [Compound 10]	> 70%
COc1ccc2c(Oc3ccc(-c4nnc(Nc5cccc(C(F)(F)F)c5)[nH]4)cc3)ccnc2c1 [Compound 11]	> 70%
FC(F)(F)c1cccc(Nc2nnc(-c3ccc(Oc4ccnc5ccccc45)cc3)[nH]2)c1 [Compound 12]	> 70%
Nc1cc(Oc2cccc(-c3nnc(Nc4cccc(C(F)(F)F)c4)[nH]3)c2)nc(N)n1 [Compound 13]	> 70%
CSc1nc(N)cc(Oc2cccc(-c3nnc(Nc4cccc(C(F)(F)F)c4)[nH]3)c2)n1 [Compound 14]	50 to 70%
Nc1nccc(Oc2cccc(-c3nnc(Nc4cccc(C(F)(F)F)c4)[nH]3)c2)n1 [Compound 15]	> 70%
Nc1cc(Oc2cccc(-c3nnc(Nc4cccc(C(F)(F)F)c4)[nH]3)c2)ncn1 [Compound 16]	> 70%
FC(F)(F)c1cccc(Nc2nnc(-c3cccc(Oc4ccncc4)c3)[nH]2)c1 [Compound 17]	50 to 70%
Nc1cc(Oc2cccc(-c3nnc(Nc4cccc(C(F)(F)F)c4)[nH]3)c2)ccn1 [Compound 18]	< 50%
NS(=O)(=O)c1cnccc1Oc1cccc(-c2nnc(Nc3cccc(C(F)(F)F)c3)[nH]2)c1 [Compound 19]	> 70%
FC(F)(F)c1cccc(Nc2nnc(-c3cccc(Oc4ccncc4C(F)(F)F)c3)[nH]2)c1 [Compound 20]	> 70%
FC(F)(F)c1cccc(Nc2nnc(-c3cccc(Oc4ncnc5[nH]ccc45)c3)[nH]2)c1 [Compound 21]	> 70%
COc1ccc2c(Oc3cccc(-c4nnc(Nc5cccc(C(F)(F)F)c5)[nH]4)c3)ccnc2c1 [Compound 22]	> 70%
FC(F)(F)c1cccc(Nc2nnc(-c3cccc(Oc4ccnc5ccccc45)c3)[nH]2)c1 [Compound 23]	> 70%

Same assay, conditions: human, A549 tumor cells, 5 μM

Compound	viability at 48 h, 5 µM
Nc1nccc(Oc2ccc(-c3nnc(Nc4cccc(C(F)(F)F)c4)[nH]3)cc2)n1 [Compound 1]	50 to 70%
Nc1cc(Oc2ccc(-c3nnc(Nc4cccc(C(F)(F)F)c4)[nH]3)cc2)ncn1 [Compound 2]	> 70%
FC(F)(F)c1cccc(Nc2nnc(-c3ccc(Oc4ccncc4)cc3)[nH]2)c1 [Compound 3]	< 50%
Nc1cc(Oc2ccc(-c3nnc(Nc4cccc(C(F)(F)F)c4)[nH]3)cc2)ccn1 [Compound 4]	50 to 70%
FC(F)(F)c1cccc(Nc2nnc(-c3ccc(Oc4cc(Cl)ccn4)cc3)[nH]2)c1 [Compound 5]	> 70%
FC(F)(F)c1cccc(Nc2nnc(-c3ccc(Oc4ccnc(Cl)c4)cc3)[nH]2)c1 [Compound 6]	< 50%
NS(=O)(=O)c1cnccc1Oc1ccc(-c2nnc(Nc3cccc(C(F)(F)F)c3)[nH]2)cc1 [Compound 7]	> 70%
FC(F)(F)c1cccc(Nc2nnc(-c3ccc(Oc4ccncc4C(F)(F)F)cc3)[nH]2)c1 [Compound 8]	50 to 70%
CSc1nc(Oc2ccc(-c3nnc(Nc4cccc(C(F)(F)F)c4)[nH]3)cc2)c2cc[nH]c2n1 [Compound 9]	> 70%
FC(F)(F)c1cccc(Nc2nnc(-c3ccc(Oc4ncnc5[nH]ccc45)cc3)[nH]2)c1 [Compound 10]	50 to 70%
COc1ccc2c(Oc3ccc(-c4nnc(Nc5cccc(C(F)(F)F)c5)[nH]4)cc3)ccnc2c1 [Compound 11]	50 to 70%
FC(F)(F)c1cccc(Nc2nnc(-c3ccc(Oc4ccnc5ccccc45)cc3)[nH]2)c1 [Compound 12]	50 to 70%
Nc1cc(Oc2cccc(-c3nnc(Nc4cccc(C(F)(F)F)c4)[nH]3)c2)nc(N)n1 [Compound 13]	50 to 70%
CSc1nc(N)cc(Oc2cccc(-c3nnc(Nc4cccc(C(F)(F)F)c4)[nH]3)c2)n1 [Compound 14]	50 to 70%
Nc1nccc(Oc2cccc(-c3nnc(Nc4cccc(C(F)(F)F)c4)[nH]3)c2)n1 [Compound 15]	> 70%
Nc1cc(Oc2cccc(-c3nnc(Nc4cccc(C(F)(F)F)c4)[nH]3)c2)ncn1 [Compound 16]	> 70%
FC(F)(F)c1cccc(Nc2nnc(-c3cccc(Oc4ccncc4)c3)[nH]2)c1 [Compound 17]	50 to 70%
Nc1cc(Oc2cccc(-c3nnc(Nc4cccc(C(F)(F)F)c4)[nH]3)c2)ccn1 [Compound 18]	< 50%
NS(=O)(=O)c1cnccc1Oc1cccc(-c2nnc(Nc3cccc(C(F)(F)F)c3)[nH]2)c1 [Compound 19]	> 70%
FC(F)(F)c1cccc(Nc2nnc(-c3cccc(Oc4ccncc4C(F)(F)F)c3)[nH]2)c1 [Compound 20]	50 to 70%
FC(F)(F)c1cccc(Nc2nnc(-c3cccc(Oc4ncnc5[nH]ccc45)c3)[nH]2)c1 [Compound 21]	> 70%
COc1ccc2c(Oc3cccc(-c4nnc(Nc5cccc(C(F)(F)F)c5)[nH]4)c3)ccnc2c1 [Compound 22]	> 70%
FC(F)(F)c1cccc(Nc2nnc(-c3cccc(Oc4ccnc5ccccc45)c3)[nH]2)c1 [Compound 23]	> 70%
